59 molecules from patent US20100022559A1, “BISOXIMES AS FUNGICIDES” (BAYER CROPSCIENCE AG, priority 2006, published 2010) can be followed below.

The nature of the first data set: logP determination by HPLC on a reversed-phase column (C 18), EEC Directive 79/831 Annex V.A8. In kind it is physicochemical. As to conditions: method marked [a] in Table 1. As to the method: The stated logP values were determined in accordance with EEC Directive 79/831 Annex V.A8 by HPLC (high performance liquid chromatography) on a reversed-phase column (C 18). Temperature: 43° C.
As for `CCC(=NOCC(C)CON=C(CC)c1cc(C)cc(C)n1)c1cc(C)cc(C)n1` (mixture of isomers) [Compound 572], the logP is 3.23^[a].

Regarding `CC(=NOC/C=C/CON=C(C)c1ccc(C)c(C)n1)c1ccc(C)c(C)n1` [compound 684], the logP is 2.67^[a].

For the molecule `CC(=NOCC(C)CON=C(C)c1nc2ccccc2[nH]1)c1nc2ccccc2[nH]1` (mixture of isomers) [compound 584], the logP is 2.05^[a].

Consider `CC(=NOCC(C)(C)CON=C(C)c1ccc2c(n1)CCCCC2)c1ccc2c(n1)CCCCC2` [Compound 592], for which the logP is 6.04^[a].

The same data set, now with this note: method marked [b] in Table 1.
With `C=C(CON=Cc1cc(C(F)(F)F)cc(C)n1)CON=C(C)c1cccc(C)n1` (mixture of isomers) [Compound 671], the logP is 4.61^[b].

`CC(=NOCC1(CON=C(C)c2cc(C)cc(C)n2)CC1)c1cc(C)cc(C)n1` [Compound 556]: the logP was 2.11^[b].

As to `C=C(CON=C(Br)c1cccc(C)n1)CON=C(Br)c1cccc(C)n1` [compound 746], the logP was 4.41^[b].

Consider `N/C(=N\OCc1cccc(CO/N=C(\N)c2nc(C3CC3)cc(C3CC3)n2)c1)c1nc(C2CC2)cc(C2CC2)n1` [compound 716], for which the logP was 3.76^[b].

As for `CC(=NOCC(C)CON=C(C)c1ccc(C)c(C)n1)c1cc(C)cc(C)n1` (racemic) [Compound 694], the logP is 2.63^[b].

In the case of `CC(=NOCC(CON=C(C)c1cccc(C)n1)Cc1ccccc1)c1cccc(C)n1` (stereo not drawn) [Compound 583], the logP was 5.37^b].

Regarding `CCCC1=NOC(CON=C(C)c2cc(C)cc(C)n2)(CON=C(C)c2cc(C)cc(C)n2)C1` (stereo not drawn) [compound 640], the logP was 2.20^[b].

As for `C(=NOCCON=Cc1ccccn1)c1ccccn1` [compound 665], the logP is 1.68^[b].

For `CC(=NOCC(C)CON=C(C)c1cccc(-c2cccc(C)n2)n1)c1cccc(-c2cccc(C)n2)n1` (stereo not drawn) [compound 551], the logP is 6.24^[b].

Take `CCCC(=NOCC1(CON=C(CCC)c2cccc(C)n2)CC(c2ccccc2)=NO1)c1cccc(C)n1` (stereo not drawn) [compound 621]: the logP is 5.9^[b].

Consider `CC(=NOCC(C)(C)CON=C(C)c1ccc(C)c(C)n1)c1cc(C)cc(C)n1` [Compound 697], for which the logP is 3.15^[b].

Turning to `C=C(CON=C(C)c1cccc(C)n1)CON=C(c1cccc(C)n1)C1CC1` (single isomer, unassigned) [compound 536], the logP is 3.19^[b] (isomer A).

As for `Cc1cc(C)nc(/C(N)=N/OCc2cccc(CO/N=C(\N)c3nc(C)cc(C)n3)c2)n1` [compound 701], the logP was 2.13^[b].

With `CCCC(=NOCC1(CON=C(CCC)c2cccc(C)n2)CC(C=C(C)C)=NO1)c1cccc(C)n1` (stereo not drawn) [compound 625], the logP was 5.97^[b].

`CC(=NOCC1(CON=C(C)c2cc(C)cc(C)n2)CCC1)c1cc(C)cc(C)n1` [Compound 562]: the logP is 2.90^[b].

Turning to `CCCC(=NOCC(C)CON=C(C)c1cccc(C)n1)c1ncccc1C` (single isomer, unassigned) [compound 548], the logP was 3.85^[b] (isomer A).

`CCC(=NOCC1(CON=C(CC)c2cccc(C)n2)CC(c2ccccc2)=NO1)c1cccc(C)n1` (stereo not drawn) [compound 611]: the logP was 5.08^[b].

In the case of `CC(=NOCC1(CON=C(C)c2ccc(C)c(C)n2)CC(CC(C)C)=NO1)c1ccc(C)c(C)n1` (stereo not drawn) [compound 630], the logP was 3.70^[b].

The same data set, now with this note: method marked [c] in Table 1.
Consider `CC(=NOCC1(CON=C(C)c2cc(C)cc(C)n2)CC1)c1cc(C)cc(C)n1` [Compound 556], for which the logP is 5.97^[c].

As for `CC(=NOCC(C)CON=C(C)c1ccc(C)c(C)n1)c1cc(C)cc(C)n1` (racemic) [Compound 694], the logP is 6.17^[c].

On to `CC(=NOCC(CON=C(C)c1cccc(C)n1)Cc1ccccc1)c1cccc(C)n1` (stereo not drawn) [Compound 583], for which the logP is 6.34^[c].

`CC(=NOCC(C)CON=C(C)c1cccc(-c2cccc(C)n2)n1)c1cccc(-c2cccc(C)n2)n1` (stereo not drawn) [compound 551]: the logP was 3.26^[c].

`CC(=NOCC(C)(C)CON=C(C)c1ccc(C)c(C)n1)c1cc(C)cc(C)n1` [Compound 697]: the logP was 6.70^[c].

Turning to `CC(=NOCC1(CON=C(C)c2cc(C)cc(C)n2)CCC1)c1cc(C)cc(C)n1` [Compound 562], the logP was 6.93^[c].

Staying with this data set, now noted: method marker [a] (footnote not shown); isomer A / isomer B / isomer mixture as noted in the cell.
`Cc1cccc(C(CC(C)C)=NOCCCON=C(CC(C)C)c2cccc(C)n2)n1` (single isomer, unassigned) [Compound 115]: the logP was 7.08^[a] (isomer B).

Regarding `CCCC(=NOCC(C)CON=C(CCC)c1ncccc1C)c1ncccc1C` (mixture of isomers) [compound 111], the logP was 4.73^[a].

As to `CC(=NOCC(C)CON=C(C)c1ccc(C)cn1)c1ccc(C)cn1` (stereo not drawn) [compound 133], the logP is on record as 3.67^a].

Turning to `CC(=NOCCCON=C(C)c1ncccc1C)c1ncccc1C` (single isomer, unassigned) [compound 85], the logP is 2.15^[a] (isomer A).

For the molecule `CC(=NOCCCON=C(C)c1nc(C)cs1)c1cccc(C)n1` (mixture of isomers) [Compound 16], the logP is 3.35^[a].

Consider `CCCC(=NOCCCON=C(CCC)c1cccc(C)n1)c1cccc(C)n1` [Compound 91], for which the logP is 5.83^[a].

On to `CCc1ccnc(C(C)=NOCCCON=C(C)c2cc(CC)ccn2)c1` [Compound 136], for which the logP was 2.98^[a].

As to `CCc1cccc(C(C)=NOCCCON=C(C)c2cccc(CC)n2)n1` [Compound 180], the logP was 5.43^[a].

With `Cc1cccnc1C(CC(C)C)=NOCC(C)CON=C(CC(C)C)c1ncccc1C` (single isomer, unassigned) [compound 102], the logP is 6.50^[a] (isomer B).

Still in this data set, the particulars now being: method marker [b]; isomer A / isomer B / isomer mixture as noted in the cell.
For the molecule `CC(=NOCCCCCCCCCCON=C(C)c1cccc(C)n1)c1cccc(C)n1` [compound 74], the logP was 7.36^[b].

On to `C=C(CON=C(C)c1cccc(C)n1)CON=C(C)c1nc(C)c(C)s1` [Compound 18], for which the logP is 4.41^[b].

`C=C(CON=C(C)c1cccc(C)n1)CON=C(N)c1ncc(C(F)(F)F)cc1Cl` [compound 245]: the logP was 3.50^[b].

Regarding `CC(=NOCCCCCCON=C(C)c1cccc(C)n1)c1cccc(C)n1` [Compound 73], the logP was 4.47^[b].

As for `C=C(CON=C(C)c1cccc(C)n1)CON=C(N)c1nc(C)c2c(n1)CCCC2` [Compound 182], the logP was 2.55^[b].

With `C=C(CON=C(C)c1cccc(C)n1)CON=C(C)c1nc(C)cc(OC)n1` (single isomer, unassigned) [Compound 177], the logP is 3.08^[b] (isomer A).

With `C=C(CON=C(C)c1ncccc1C)CON=C(C)c1ncccc1C` [compound 65], the logP is 2.90^[b].

The data set is the same for the next values; noted with them: method marker [c] (footnote not shown).
With `CC(=NOCCCON=C(C)c1nc(C)cs1)c1cccc(C)n1` (mixture of isomers) [Compound 16], the logP is 4.47^[c].

Staying with this data set, now noted: reversed-phase HPLC column (C 18); HCO2H; HPLC reversed-phase column (C 18), 43° C.; read-out: logP (HCO2H).
Regarding `Cc1cc(C)nc(/C(N)=N/OCC(C)CO/N=C(\N)c2nc(C)cc(C)n2)n1` (stereo not drawn) [drawing 85, N′,N″-[(2-methylpropane-1,3-diyl)bis(oxy)]bis(4,6-dimethylpyrimidine-2-carboximidamide)], the chromatographic logP came out at 1.81.

The same data set, now with this note: value marked [a].
For `C=C(CON=C(c1cccc(C)n1)C(C)C)CON=C(c1cccc(C)n1)C(C)C` (single isomer, unassigned) [compound 275], the logP was 4.90^[a] (isomer A).

With `CC[Si](C)(CON=C(C)c1cccc(C)n1)CON=C(C)c1cccc(C)n1` [Compound 785], the logP is 5.98^[a].

As to `C=C(CON=C(c1cccc(C)n1)C1CC1)CON=C(c1cccc(C)n1)C1CC1` (mixture of isomers) [Compound 312], the logP is 3.10^[a].

With `CC(=NOC1CCC(ON=C(C)c2cc(C)cc(C)n2)C1)c1cc(C)cc(C)n1` (mixture of isomers) [compound 796], the logP was 2.55^[a].

Still in this data set, the particulars now being: value marked [b].
Take `CC(=NOC[C@@H]1O[C@H]1CON=C(C)c1cccc(C)n1)c1cccc(C)n1` [compound 285]: the logP was 2.17^[b].

Take `CC(=NOCC(C)(C)CON=C(C)c1ncccc1C)c1cccc(C)n1` [compound 490]: the logP is 3.89^[b].

`CC(=NOCC(C)(C)CON=C(C)c1cccc(C)n1)c1ccccc1` [compound 419]: the logP is 5.42^[b].

Regarding `C=C(CON=C(C)c1cccc(C)n1)CON=C(C)c1cccc(CC)n1` [compound 354], the logP was 4.67^[b].

With `CC[Si](C)(CON=C(C)c1cccc(C)n1)CON=C(C)c1cccc(C)n1` [Compound 785], the logP is 5.98^[b].

With `CC(=NOCC(C)(C)CON=C(C)c1cccc(C)n1)c1cccc(C(F)(F)F)c1` [compound 410], the logP is 6.16^[b].

As for `CC(=NOCC(C)CON=C(C)c1cccc(Cc2ccccc2)n1)c1cccc(C)n1` (stereo not drawn) [Compound 420], the logP was 6.09^[b].

For `CCc1cccc(C(C)=NOCCCCON=C(C)c2cccc(C)n2)n1` [compound 329], the logP is 4.72^[b].

As to `CC(=NOCC(O)CON=C(C)c1cccc(C)n1)c1cccc(C)n1` (stereo not drawn) [compound 293], the logP is 1.46^[b].

For the molecule `CC(=NOC[C@@H]1O[C@@H]1CON=C(C)c1cccc(C)n1)c1cccc(C)n1` [compound 287], the logP is 2.42^[b].

With `CC(=NOCC1(CON=C(C)c2nc(C)ccc2C)CCC1)c1nc(C)ccc1C` (single isomer, unassigned) [compound 761], the logP was 3.77^[b].

Consider `CC(=NOCCCCCCON=C(C)c1nc(C)c(C)s1)c1cccc(C)n1` (single isomer, unassigned) [compound 389], for which the logP is 5.84^[b] (isomer A).

Regarding `COc1ccc(C(C)=NOCC(C)(C)CON=C(C)c2cccc(C)n2)cc1OC` [compound 414], the logP is 4.57^[b].

For `C=C(CON=C(C)c1cccc(C)n1)CON=C(C)c1cc(OC)cc(C)n1` (single isomer, unassigned) [Compound 476], the logP is 3.33^[b] (isomer B).

With `CC(=NOCC(C)CON=C(C)c1ccccc1Cl)c1cccc(C)n1` (stereo not drawn) [compound 436], the logP is 5.08^[b].

With `CCC(=NOCC(C)CON=C(CC)c1cccc(CC)n1)c1cccc(CC)n1` (mixture of isomers) [compound 263], the logP is 6.33^[b].

`C=CCCC(=NOCC(C)CON=C(C)c1cccc(C)n1)c1ncccc1C` (stereo not drawn) [compound 424]: the logP is 4.10^[b].

The data set is the same for the next values; noted with them: value marked [c].
Consider `CC[Si](C)(CON=C(C)c1cccc(C)n1)CON=C(C)c1cccc(C)n1` [Compound 785], for which the logP was 6.52^[c].

Turning to `CC(=NOCC1(CON=C(C)c2nc(C)ccc2C)CCC1)c1nc(C)ccc1C` (single isomer, unassigned) [compound 761], the logP is 5.84^[c].
